# Measurements reported in PMC11547513, “Design, Synthesis and Biological Activity Evaluation of β-Carboline Derivatives Containing Nitrogen Heterocycles” (Molecules, 2024).
# How the values were obtained:
# [1] = test system: A549 (human lung cancer cell); assay: MTT assay, in vitro cytotoxicity on A549
# Source text: (§1) Cells were purchased from the Cell Bank of the Chinese Academy of Sciences (Kunming, China).
# [2] = test system: T47D (human breast cancer cell); assay: MTT assay, in vitro cytotoxicity on T47D
# Source text: as §1
# [3] = test system: PC-3 cells; assay: Intracellular ROS assay (DCFH-DA, flow cytometry); assay type: cell-based, human; details: 10 μM, 24 h; negative control MFI 19.8
# Experimental: Apoptosis is an important target for antitumor therapy. To explore the antitumor mechanism of compound 8q, cell apoptosis was detected using flow cytometry. […] Moreover, reactive oxygen species (ROS) play a significant role in cell growth, differentiation and apoptosis. Excessive ROS can cause oxidative damage and lead to cell apoptosis. […]
# a wound healing assay was performed using the method we previously reported1. In short, PC-3 cells were seeded in a six-well plate at a density of 10 × 105 and incubated at a constant temperature of 37 ℃ and 5% CO2 for 24 h. Then the pipette tip was used to create a uniform wound on the surface of cells. Subsequently, after cleaning twice with PBS, the scratch healing of the 8q treatment group and the positive drug treatment […]
# was used to measure and quantify cell migration. […]
# PC-3 cells were seeded in a six-well plate at a density of 3 × 105, and cultured at 37 ℃ and 5% CO2 for 24 h before adding 10 μM. […] After completion, the cells were immediately detected on the Flow Cytometry (Solarbio, Beijing, China). […]
# at 37 ° C for 20 min. Subsequently, the staining solution was wash off with basic culture medium and detected the fluorescence intensity using the flow cytometer. The data was analyzed and obtained through Flow Jo and Prism 7.04 software. […]
# The distribution of cycles was analyzed by Flow Jo and Prism 7.04 software. […]
structure (smiles),measurement,setting,value
"COc1cc(-c2nc(-c3nnc(SCC(=O)Nc4ccc(CN5CCOCC5)cc4)o3)cc3c2[nH]c2ccccc23)cc(OC)c1OC [Compound 8q, N-(4-(morpholinomethyl)phenyl)-2-((5-(1-(3,4,5-trimethoxyphenyl)-9H-pyrido[3,4-b]indol-3-yl)-1,3,4-oxadiazol-2-yl)thio)acetamide]",IC50,"[1]; A549, read-out: IC50 (Mean ± S.D.), A549",26.2 ± 1.51 µM
same,inhibition at 10 µM,"[1]; A549, read-out: Inhibitory Activity/% at 10 μM, A549",32.9 ± 4.3%
same,melting point,,181.8 to 182.7 °C
same,IC50,"[2]; read-out: IC50 (Mean ± S.D.), T47D",9.96 ± 0.63 µM
same,inhibition at 10 µM,"[2]; read-out: Inhibitory Activity/% at 10 μM, T47D",14.5 ± 7.43%
same,ROS mean fluorescence intensity (MFI) value,[3],138
